Laboratory results as given in US11396517B1, “Exo-aza spiro inhibitors of menin-MLL interaction” (Janssen Pharmaceutica NV, priority 2017, dated 2022).
Read-outs that look alike come from different tables or passages of the source.

Columns and labels:
[1] = biological target: T1, menin (Homo sapiens, UniProt O00255, T541A); assay: Menin/MLL homogenous time-resolved fluorescence (HTRF) assay; assay type: binding; settings: location 2; read-out: (2) location 2 Menin HTRF assay (IC50 (nM))
T1 construct: Menin (a.a. 1-610-6×his tag)
T1 sequence (O00255 with tags, fused parts or gaps T541A): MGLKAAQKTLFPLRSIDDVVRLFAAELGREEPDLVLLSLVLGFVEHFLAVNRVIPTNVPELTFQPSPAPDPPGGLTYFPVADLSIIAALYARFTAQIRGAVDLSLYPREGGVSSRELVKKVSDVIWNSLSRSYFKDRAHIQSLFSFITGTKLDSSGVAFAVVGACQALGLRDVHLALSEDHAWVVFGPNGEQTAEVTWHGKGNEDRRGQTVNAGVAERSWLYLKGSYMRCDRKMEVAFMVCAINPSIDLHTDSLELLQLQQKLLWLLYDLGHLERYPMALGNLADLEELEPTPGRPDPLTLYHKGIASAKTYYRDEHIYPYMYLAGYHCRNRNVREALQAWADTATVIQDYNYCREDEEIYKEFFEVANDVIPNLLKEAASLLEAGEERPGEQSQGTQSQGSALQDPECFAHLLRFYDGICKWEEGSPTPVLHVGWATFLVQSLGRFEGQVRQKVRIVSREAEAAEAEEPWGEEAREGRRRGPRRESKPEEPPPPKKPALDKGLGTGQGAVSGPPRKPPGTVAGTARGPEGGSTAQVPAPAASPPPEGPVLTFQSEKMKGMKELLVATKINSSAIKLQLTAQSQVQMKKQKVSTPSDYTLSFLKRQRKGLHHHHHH
Outline: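 Displacement of 75 nM FITC-MBM1 from terbium-cryptate-labeled His-tagged menin 1-610 ([…]) was read as the 520/490 nm HTRF ratio. Compound (11-point, 3-fold series) got 5 min with menin before peptide, then 15 min at ambient; 0.5% DMSO, Tris pH 7.5.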

[2] = tested on: MV-4-11; assay: Proliferation assay A (spheroid assay) MV-4-11; assay type: cell-based, human; settings: MV-4-11 cells, 8 d, AUC of confluence against time, absolute IC50, read-out: (3a) Spheroid assay MV-4-11 (IC50(μM)) Assay A
Outline: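 Spheroid growth in ultra-low-attachment round-bottom wells (1,500 MV-4-11, 300 MOLM14 or 750 K562 cells), compound titration at 0.3% DMSO, 8 d at 37° C. Confluence imaged every 4 h; AUC from t=0 baseline expressed as % of DMSO control and fitted for absolute IC50.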

[3] = tested on: MV-4-11; assay: Proliferation assay B (spheroid assay) MV-4-11; assay type: cell-based, human; settings: MV-4-11 cells, confluence at day 8, absolute IC50, read-out: (3b) Spheroid assay MV-4--11 (IC50(μM)) Assay B
Procedure: 3b) Proliferation Assay B
The anti-proliferative effect of menin/MLL protein/protein interaction inhibitor test compounds was assessed in human leukemia cell lines. The cell lines MV-4-11 and MOLM14 harbor MILL translocations and express the MILL fusion proteins MLL-AF4 and MLL-AF9, respectively, as well as the wildtype protein from the second allele. […] K562 was used as a control cell line containing two MLL wildtype alleles in order to exclude compounds that display general cytotoxic effects.
MV-4-11 and MOLM14 were cultured in RPMI-1640 (Sigma Aldrich) supplemented with 10% fetal bovine serum (HyClone), 2 mM L-glutamine (Sigma Aldrich) and 50 μg/ml gentamycin (Gibco). K562 were propagated in RPMI-1640 (Sigma Aldrich) supplemented with 20% fetal bovine serum (HyClone), 2 mM L-glutamine (Sigma Aldrich) and 50 μg/ml gentamycin (Gibco).
In order to assess the anti-proliferative effects, 1,500 MV-4-11, 300 MOLM14 cells or 750 K562 cells were seeded in 200 μl media per well in 96-well round bottom, ultra-low attachment plates (Costar, catalogue number 7007). Cell seeding numbers were chosen based on growth curves to ensure linear growth throughout the experiment. Test compounds were added at different concentrations and the DMSO content was normalized to 0.3%. Cells were incubated for 8 d at 37° C. and 5% CO2. Spheroid like growth was measured in real-time by live-cell imaging (IncuCyteZOOM, Essenbio, 4× objective) acquiring images at day 8. Confluence (%) as a measure of spheroid size was determined using an integrated analysis tool.
In order to determine the effect of the test compounds over time, the confluence in each well as a measure of spheroid size, was calculated. Confluence […] at the beginning of the experiment (t=0) was used as baseline for the calculation.
Absolute IC50 values were calculated as percent change in confluence as follows:
LC=Low Control: cells treated with 1 μM of the cytotoxic agent staurosporin
HC=High Control: Mean confluence (%) (DMSO treated cells) % Effect=100−(100*(Sample−LC)/(HC−LC))
To determine the IC50 a curve is fitted to the plot of % Effect vs Log 10 compound concentration using a sigmoidal fit with a variable slope and fixing the maximum to 100% and the minimum to 0%.

[4] = tested on: MOLM14; assay: Proliferation assay B (spheroid assay) MOLM14; assay type: cell-based, human; settings: MOLM14 cells, confluence at day 8, absolute IC50, read-out: (3b) Spheroid assay MOLM14 (IC50(μM)) Assay B
Outline: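 IC50 derived from % effect on day-8 imaged confluence, scaled between DMSO-treated cells (high) and 1 μM staurosporine (low), using a variable-slope fit constrained 0-100%. Cells seeded as spheroids in ultra-low-attachment plates and exposed to compound for 8 days, 0.3% DMSO.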

O=c1[nH]c2ccc(NC3CC4(CCN(c5ncnc6sc(CC(F)(F)F)cc56)C4)C3)cc2o1 (mixture of isomers) [Compound 322]
IC50 [1]: 51.4 nM | IC50 ([2]; Homo sapiens, MV4-11, 192 h): > 3.75 µM | IC50 ([3]; Homo sapiens, MV4-11, 192 h): > 3.75 µM | IC50 ([4]; Homo sapiens, MOLM-14, 192 h): > 3.75 µM

N#CCc1ccc(NC2CCC3(C2)CN(c2nc(N)nc4sc(CC(F)(F)F)cc24)C3)cc1 (racemic) [Compound 387]
IC50 [1]: 94.2 nM | IC50 ([2]; Homo sapiens, MV4-11, 192 h): > 3.75 µM | IC50 ([3]; Homo sapiens, MV4-11, 192 h): > 3.75 µM | IC50 ([4]; Homo sapiens, MOLM-14, 192 h): > 3.75 µM

CNC(=O)c1ccc(NC2CC3(CCN(c4ncnc5sc(CC(F)(F)F)cc45)C3)C2)cc1 (single isomer, unassigned) [Compound 94]
IC50 [1]: 3.6 nM | IC50 [2]: 0.04 µM | IC50 ([3]; Homo sapiens, MV4-11, 192 h): 0.06 µM | IC50 ([4]; Homo sapiens, MOLM-14, 192 h): 0.44 µM

CNc1nc(N2CC3(CC[C@H](NCc4cccc(-c5cc[nH]n5)c4)C3)C2)c2cc(CC(F)(F)F)sc2n1 (stereo in doubt) [Compound 122]
IC50 [1]: 49.3 nM | IC50 ([3]; Homo sapiens, MV4-11, 192 h): 0.44 µM | IC50 ([4]; Homo sapiens, MOLM-14, 192 h): 1.21 µM

N#CCc1ccc(N[C@@H]2CC[C@@]3(CCN(c4ncnc5sc(CC(F)(F)F)cc45)C3)C2)cc1 (stereo in doubt) [Compound 144]
IC50 [1]: 9.3 nM | IC50 ([3]; Homo sapiens, MV4-11, 192 h): 1.4 µM | IC50 ([4]; Homo sapiens, MOLM-14, 192 h): 2.77 µM

N#CCc1ccc(N[C@H]2CC[C@@]3(CCN(c4ncnc5sc(CC(F)(F)F)cc45)C3)C2)cc1 (stereo in doubt) [Compound 145]
IC50 [1]: 22.6 nM | IC50 ([3]; Homo sapiens, MV4-11, 192 h): 3.55 µM | IC50 ([4]; Homo sapiens, MOLM-14, 192 h): > 3.75 µM

N#CCc1ccc(N[C@H]2CC[C@]3(CCN(c4ncnc5sc(CC(F)(F)F)cc45)C3)C2)cc1 (stereo in doubt) [Compound 147]
IC50 [1]: 45.3 nM | IC50 ([3]; Homo sapiens, MV4-11, 192 h): 2.07 µM | IC50 ([4]; Homo sapiens, MOLM-14, 192 h): 2.9 µM

NC(=O)Cn1c(=O)[nH]c2cc(CNC3CCC4(C3)CN(c3ncnc5sc(CC(F)(F)F)cc35)C4)ccc21 (stereo not drawn) [Compound 53, 2-(2-oxo-5-(((2-(6-(2,2,2-trifluoroethyl)thieno[2,3-d]-pyrimidin-4-yl)-2-azaspiro[3.4]octan-6-yl)amino)methyl)-2,3-dihydro-1H-benzo[d]-imidazol-1-yl)acetamide]
IC50 [1]: 8.7 nM | IC50 ([3]; Homo sapiens, MV4-11, 192 h): > 3.75 µM | IC50 ([4]; Homo sapiens, MOLM-14, 192 h): > 3.75 µM

CNC(=O)c1ccc(NC2CC3(CCN(c4ncnc5sc(CC(F)(F)F)cc45)C3)C2)nc1 (stereo not drawn) [Compound 70]
IC50 [1]: 2.7 nM | IC50 ([3]; Homo sapiens, MV4-11, 192 h): 0.3 µM | IC50 ([4]; Homo sapiens, MOLM-14, 192 h): 1.08 µM

CN1CCC(Oc2cc(NC3CC4(CCN(c5ncnc6sc(CC(F)(F)F)cc56)C4)C3)ccc2C#N)CC1 (stereo not drawn) [Compound 81]
IC50 [1]: 6.8 nM | IC50 ([3]; Homo sapiens, MV4-11, 192 h): 0.43 µM | IC50 ([4]; Homo sapiens, MOLM-14, 192 h): 0.65 µM

CN1CCC(Nc2cc(NC3CC4(CCN(c5ncnc6sc(CC(F)(F)F)cc56)C4)C3)ccc2C#N)CC1 (stereo not drawn) [Compound 82]
IC50 [1]: 73.6 nM | IC50 ([3]; Homo sapiens, MV4-11, 192 h): 1.14 µM | IC50 ([4]; Homo sapiens, MOLM-14, 192 h): 0.93 µM

CNC(=O)c1ccc(NC2CCC3(C2)CN(c2ncnc4sc(CC(F)(F)F)cc24)C3)cc1 (stereo not drawn) [Compound 96]
IC50 [1]: 43.4 nM | IC50 ([3]; Homo sapiens, MV4-11, 192 h): 1.02 µM | IC50 ([4]; Homo sapiens, MOLM-14, 192 h): 1.09 µM

N#CCc1ccc(NC2CCC3(CCN(c4ncnc5sc(CC(F)(F)F)cc45)C3)C2)cc1F (stereo not drawn) [Compound 129]
IC50 [1]: 34.3 nM | IC50 ([3]; Homo sapiens, MV4-11, 192 h): 3.81 µM | IC50 ([4]; Homo sapiens, MOLM-14, 192 h): > 3.75 µM

CC(C)(C#N)c1ccc(NC2CCC3(CCN(c4ncnc5sc(CC(F)(F)F)cc45)C3)C2)cc1 (stereo not drawn) [Compound 130]
IC50 [1]: 67.1 nM | IC50 ([3]; Homo sapiens, MV4-11, 192 h): > 3.75 µM | IC50 ([4]; Homo sapiens, MOLM-14, 192 h): > 3.75 µM

N#CC1(c2ccc(NC3CCC4(CCN(c5ncnc6sc(CC(F)(F)F)cc56)C4)C3)cc2)CC1 (stereo not drawn) [Compound 131]
IC50 [1]: 49.1 nM | IC50 ([3]; Homo sapiens, MV4-11, 192 h): 3.3 µM | IC50 ([4]; Homo sapiens, MOLM-14, 192 h): > 3.75 µM

CNC(=O)c1ccc(NC2CCC3(CCN(c4ncnc5sc(CC(F)(F)F)cc45)C3)C2)cc1 (stereo not drawn) [Compound 133]
IC50 [1]: 4.1 nM | IC50 ([3]; Homo sapiens, MV4-11, 192 h): 1.41 µM | IC50 ([4]; Homo sapiens, MOLM-14, 192 h): > 3.75 µM

FC(F)(F)Cc1cc2c(N3CCC4(CC(Nc5ccccn5)C4)C3)ncnc2s1 (stereo not drawn) [Compound 151]
IC50 [1]: 31 nM | IC50 ([3]; Homo sapiens, MV4-11, 192 h): 2.03 µM | IC50 ([4]; Homo sapiens, MOLM-14, 192 h): 2.48 µM

FC(F)(F)Cc1cc2c(N3CCC4(CC(Nc5ccncc5)C4)C3)ncnc2s1 (stereo not drawn) [Compound 154]
IC50 [1]: 13 nM | IC50 [3]: 0.67 µM | IC50 [4]: 2.35 µM

FC(F)(F)Cc1cc2c(N3CC4(CCC(NC5(c6ccccc6)CC5)C4)C3)ncnc2s1 (stereo not drawn) [Compound 282]
IC50 [1]: 92.8 nM | IC50 ([3]; Homo sapiens, MV4-11, 192 h): > 3.75 µM | IC50 ([4]; Homo sapiens, MOLM-14, 192 h): > 3.75 µM

Cc1cc2ccc(NC3CCC4(C3)CN(c3ncnc5sc(CC(F)(F)F)cc35)C4)cc2[nH]1 (stereo not drawn) [Compound 289]
IC50 [1]: 42.7 nM | IC50 ([3]; Homo sapiens, MV4-11, 192 h): > 3.75 µM | IC50 ([4]; Homo sapiens, MOLM-14, 192 h): > 3.75 µM

O=c1[nH]c2ccc(NC3CCC4(C3)CN(c3ncnc5sc(CC(F)(F)F)cc35)C4)cc2o1 (stereo not drawn) [Compound 295]
IC50 [1]: 97.7 nM | IC50 ([3]; Homo sapiens, MV4-11, 192 h): > 3.75 µM | IC50 ([4]; Homo sapiens, MOLM-14, 192 h): > 3.75 µM

O=c1[nH]c2ccc(NC3CCC4(C3)CN(c3ncnc5sc(CC(F)(F)F)cc35)C4)cc2[nH]1 (stereo not drawn) [Compound 298]
IC50 [1]: 54.3 nM | IC50 ([3]; Homo sapiens, MV4-11, 192 h): > 3.75 µM | IC50 ([4]; Homo sapiens, MOLM-14, 192 h): > 3.75 µM
